# Assay results published in ChEMBL document CHEMBL5608195, “Identification and biological evaluation of fused tetrahydroisoquinoline derivatives as Wnt/β-catenin signaling inhibitors to suppress colorectal cancer” (Eur J Med Chem, 2024).
# Activity calls are given as the source filed them. The rule behind the calls is not given here.
# Assays:
# [1] = Bioavailability in male ICR (CD-1) mouse at 10 mg/kg, ip measured upto 24 hrs by LC-MS/MS analysis; type: ADME, organism-based; conditions: in vivo
# [2] = Tmax in male ICR (CD-1) mouse at 20 mg/kg, po measured upto 24 hrs by LC-MS/MS analysis; type: ADME, organism-based; conditions: in vivo
# [3] = Cmax in male ICR (CD-1) mouse at 20 mg/kg, po measured upto 24 hrs by LC-MS/MS analysis; type: ADME, organism-based; conditions: in vivo
# [4] = Oral bioavailability in male ICR (CD-1) mouse at 20 mg/kg measured upto 24 hrs by LC-MS/MS analysis; type: ADME, organism-based; conditions: in vivo
# [5] = Cmax in male ICR (CD-1) mouse at 10 mg/kg, ip measured upto 24 hrs by LC-MS/MS analysis; type: ADME, organism-based; conditions: in vivo
# [6] = AUC (0 to infinity) in male ICR (CD-1) mouse at 10 mg/kg, ip measured upto 24 hrs by LC-MS/MS analysis; type: ADME, organism-based; conditions: in vivo
# [7] = tested on: HCT-116; experiment: Induction of cell cycle arrest in human HCT-116 cells assessed as accumulation of cells at S phase incubated for 24 hrs by PI staining based flow cytometry; type: functional; conditions: dose 6-10 µM
# [8] = tested on: HCT-116; experiment: Induction of cell cycle arrest in human HCT-116 cells assessed as accumulation of cells at G2/M phase incubated for 24 hrs by PI staining based flow cytometry; type: functional; conditions: dose 6-10 µM
# [9] = tested on: RKO; experiment: Induction of cell cycle arrest in human RKO cells assessed as accumulation of cells at S phase incubated for 24 hrs by PI staining based flow cytometry; type: functional; conditions: dose 6-10 µM
# [10] = tested on: RKO; experiment: Induction of cell cycle arrest in human RKO cells assessed as accumulation of cells at G2/M phase incubated for 24 hrs by PI staining based flow cytometry; type: functional; conditions: dose 6-10 µM
# [11] = tested on: HCT-116; experiment: Induction of cell cycle arrest in human HCT-116 cells assessed as downregulation of CDK1 protein level by Western blot analysis; type: functional, cell-based
# [12] = tested on: RKO; experiment: Induction of cell cycle arrest in human RKO cells assessed as downregulation of CDK1 protein level by Western blot analysis; type: functional, cell-based
# [13] = tested on: HCT-116; experiment: Induction of cell cycle arrest in human HCT-116 cells assessed as downregulation of Cyclin D1 protein level by Western blot analysis; type: functional, cell-based
# [14] = tested on: RKO; experiment: Induction of cell cycle arrest in human RKO cells assessed as downregulation of Cyclin D1 protein level by Western blot analysis; type: functional, cell-based
# [15] = tested on: HCT-116; experiment: Induction of cell cycle arrest in human HCT-116 cells assessed as downregulation of c-Myc protein level by Western blot analysis; type: functional, cell-based
# [16] = tested on: RKO; experiment: Induction of cell cycle arrest in human RKO cells assessed as downregulation of c-Myc protein level by Western blot analysis; type: functional, cell-based
# [17] = tested on: RKO; experiment: Induction of cell cycle arrest in human RKO cells assessed as downregulation of Cyclin A2 protein level by Western blot analysis; type: functional, cell-based
# [18] = tested on: HCT-116; experiment: Induction of cell cycle arrest in human HCT-116 cells assessed as upregulation of P21 protein level by Western blot analysis; type: functional, cell-based
# [19] = tested on: HCT-116; experiment: Inhibition of Wnt/beta-catenin signaling pathway in human HCT-116 cells assessed as downregulation of beta-catenin expression incubated for 24 hrs by qRT-PCR analysis; type: cell-based; conditions: dose <= 10.0 µM
# [20] = tested on: RKO; experiment: Inhibition of Wnt/beta-catenin signaling pathway in human RKO cells assessed as downregulation of beta-catenin expression incubated for 24 hrs by qRT-PCR analysis; type: cell-based; conditions: dose <= 10.0 µM
# [21] = tested on: RKO; experiment: Inhibition of Wnt/beta-catenin signaling pathway in human RKO cells assessed as induction of beta-catenin degradation pretreated with cycloheximide followed by compound addition by Western blot analysis; type: cell-based; conditions: time <= 6.0 hrs, TDE = time-dependent effect
# [22] = tested on: HCT-116; experiment: Inhibition of Wnt/beta-catenin signaling pathway in human HCT-116 cells assessed as induction of beta-catenin degradation in presence of MG132 by Western blot analysis; type: cell-based
# [23] = tested on: RKO; experiment: Inhibition of Wnt/beta-catenin signaling pathway in human RKO cells assessed as induction of beta-catenin degradation in presence of MG132 by Western blot analysis; type: cell-based
# [24] = Binding affinity to recombinant N-terminal GST-tagged human HSP90 (1 to 224 residues) extracted from Escherichia coli BL21 (DE3) cells assessed as dissociation constant by surface plasmon resonance assay
# [25] = species on record: Homo sapiens; experiment: Induction of human HSP90 stabilization assessed as protection against pronase E-mediated hydrolysis at 25 to 50 uM incubated for 1 hr by DART assay; conditions: dose 25-50 µM
# [26] = tested on: HCT-116; experiment: Antitumor activity against human HCT-116 cells xenografted in male BALB/c mouse assessed as tumor growth inhibition at 10 mg/kg, ip measured every two days for upto 20 days relative to control; type: functional; conditions: HCT-116, 480 h, time <= 20 day, read-out: TGI
# [27] = tested on: HCT-116; experiment: Antitumor activity against human HCT-116 cells xenografted in male BALB/c mouse assessed as tumor growth inhibition at 40 mg/kg, ip measured every two days for upto 20 days relative to control; type: functional; conditions: HCT-116, 480 h, time <= 20 day, read-out: TGI
# [28] = Toxicity in male BALB/c mouse xenografted with human HCT-116 cells assessed as effect on serum ALT level at 10 to 40 mg/kg, ip by biochemical analysis; type: organism-based; conditions: in vivo, dose 10-40 mg/kg
# [29] = Toxicity in male BALB/c mouse xenografted with human HCT-116 cells assessed as effect on serum ALP level at 10 to 40 mg/kg, ip by biochemical analysis; type: organism-based; conditions: in vivo, dose 10-40 mg/kg
# [30] = Toxicity in male BALB/c mouse xenografted with human HCT-116 cells assessed as effect on serum creatinine level at 10 to 40 mg/kg, ip by biochemical analysis; type: organism-based; conditions: in vivo, dose 10-40 mg/kg
# [31] = Toxicity in male BALB/c mouse xenografted with human HCT-116 cells assessed as effect on serum uric acid level at 10 to 40 mg/kg, ip by biochemical analysis; type: organism-based; conditions: in vivo, dose 10-40 mg/kg
# [32] = Toxicity in male BALB/c mouse xenografted with human HCT-116 cells assessed as effect on serum urea level at 10 to 40 mg/kg, ip by biochemical analysis; type: organism-based; conditions: in vivo, dose 10-40 mg/kg
# [33] = Toxicity in male BALB/c mouse xenografted with human HCT-116 cells assessed as histological change in heart at 10 to 40 mg/kg, ip by H and E staining based optical microscopic analysis; type: organism-based; conditions: in vivo, dose 10-40 mg/kg
# [34] = Toxicity in male BALB/c mouse xenografted with human HCT-116 cells assessed as histological change in liver at 10 to 40 mg/kg, ip by H and E staining based optical microscopic analysis; type: organism-based; conditions: in vivo, dose 10-40 mg/kg
# [35] = tested on: HCT-116; experiment: Antitumor activity against human HCT-116 cells xenografted in male BALB/c mouse assessed as induction of apoptosis by measuring increase cleaved-caspase-3 protein level at 10 to 40 mg/kg, ip by Immunohistochemical staining based analysis; type: functional, organism-based; conditions: dose 10-40 mg/kg
# [36] = tested on: HCT-116; experiment: Antitumor activity against human HCT-116 cells xenografted in male BALB/c mouse assessed as decrease in Ki-67 protein level at 10 to 40 mg/kg, ip by Immunohistochemical staining based analysis; type: functional, organism-based; conditions: dose 10-40 mg/kg
# [37] = tested on: HCT-116; experiment: Inhibition of Hsp90/beta-catenin in human HCT-116 cells at 6 to 10 uM incubated for 24 hrs by co-immunoprecipitation analysis; type: cell-based; conditions: dose 6-10 µM
# [38] = Toxicity in Kunming mouse assessed as behavioural changes at 200 to 400 mg/kg, ip; type: organism-based; conditions: in vivo, dose 200-400 mg/kg
smiles,measurement,setting,value
CC12c3ccc(Cl)cc3CCN1CCc1c2[nH]c2ccc(Cl)cc12 (stereo not drawn),bioavailability,[1],97%
same,Tmax,[2],19.8 min
same,Cmax,[3],832 ng/mL
same,bioavailability,[4],40%
same,Cmax,[5],1450 ng/mL
same,AUC(0-inf),[6],2900 ng·h/mL
same,Activity,[7],Dose-Dependent Effect
same,Activity,[8],Dose-Dependent Effect
same,Activity,[9],Dose-Dependent Effect
same,Activity,[10],Dose-Dependent Effect
same,Activity,[11],Dose-Dependent Effect
same,Activity,[12],Dose-Dependent Effect
same,Activity,[13],Dose-Dependent Effect
same,Activity,[14],Dose-Dependent Effect
same,Activity,[15],Dose-Dependent Effect
same,Activity,[16],Dose-Dependent Effect
same,Activity,[17],Dose-Dependent Effect
same,Activity,[18],Dose-Dependent Effect
same,inhibition,[19],Dose-Dependent Effect
same,inhibition,[20],Dose-Dependent Effect
same,inhibition,[21],Tde
same,inhibition,[22],inactive
same,inhibition,[23],inactive
same,Kd,[24],12.2 µM
same,Activity,[25],Active
same,inhibition in vivo at 10 mg/kg,[26],57.4%
same,inhibition in vivo at 40 mg/kg,[27],71.6%
same,Activity,[28],Non-Toxic
same,Activity,[29],Non-Toxic
same,Activity,[30],Non-Toxic
same,Activity,[31],Non-Toxic
same,Activity,[32],Non-Toxic
same,Activity,[33],Non-Toxic
same,Activity,[34],Non-Toxic
same,Activity,[35],Active
same,Activity,[36],Active
same,inhibition,[37],Dose-Dependent Effect
same,Activity,[38],Non-Toxic
